This is an account of results in patent US11565005B2, “Dota-hapten compositions for anti-dota/anti-tumor antigen bispecific antibody pretargeted radioimmunotherapy” (MEMORIAL SLOAN KETTERING CANCER CENTER, priority 2017, dated 2023).

One series concerns SW1222 tumor. Briefly: In vivo competition study: maximum tumor uptake of pretargeted DOTA-hapten. On the set-up: species or system mice. The procedure: In addition to studies with tracer doses of radiolabeled Proteus-DOTA, the upper limit for absolute tumor uptake of radiolabeled Proteus-DOTA was determined using in vivo competition studies. Biodistribution experiments were conducted 24 h following dosing of groups of tumor bearing mice with wide mass range of Proteus-DOTA spanning 2 orders of magnitude (˜170-33800 pmol), showing maximum tumor uptake (“Bmax”) of ˜60 pmol DOTA-hapten/gram of SW1222 tumor. […] Based on a maximum tumor uptake of pretargeted Proteus-DOTA of 62 pmol per gram of SW1222 tumor, ˜180 nCi of ^225Ac could be localized per gram of tumor at SA that are currently achieved with quantitative RCY.

The test system of series [1] is GD2-expressing IMR-32 human neuroblastoma xenografts. In words: Anti-GD2-DOTA-PRIT pretargeting biodistribution, ^225Ac- vs ^177Lu-DOTA-Bn. It counts as in vivo, athymic nude mice. To be noted: pretargeted with hu3F8-C825 + clearing agent, 24 hours post-injection. The procedure: Female athymic nude mice bearing subcutaneous GD2-expressing IMR-32 human neuroblastoma xenografts in the right-hand flank were injected intravenously (i.v.) via the lateral tail-vein with three separate reagents: (1) hu3F8-C825 (0.25 mg, 1.19 nmol) [t=−28 hours (h)], followed by (2) 0.1 mg 500 kD-dextran-DOTA-Bn(Y) (0.2 nmol of CA; 146 DOTA-Bn(Y)/mol of dextran, 29 nmol of DOTA-Bn(Y)) [t=−4 h] and (3) an equimolar amount of either ^177Lu- or ^225Ac-DOTA-Bn (50 μCi and 100 μCi of ^177Lu and ^225Ac, respectively, 8-10 pmol) at [t=0 h]. Mice were sacrificed at 24 h post-injection of radiotracer for biodistribution assay of tumor and select normal tissues. The average tumor masses were as follows (presented as average ±SD): 0.77±0.62 g and 0.49±0.28 g for ^177Lu and ^225Ac cohorts, respectively. Activity concentration data are expressed as the mean % ID/g standard error of the mean (SEM). Errors for the tumor-to-tissue ratios are calculated as the geometric mean of the standard errors of the mean. Student's t-test p-values highlighted in bold are considered significant (p<0.05).

In series [2] the test system is GPA33-expressing SW1222 xenografts. To be noted: anti-GPA33-DOTA-PRIT, 10-50 pmol, 24 hours p.i.; cited from earlier work.
Series [3] can be described thus: Dynamic PET imaging and ex vivo biodistribution of [^68Ga]Proteus-DOTA in mice bearing NCI-N87 tumors. Details: species or system nude mice. The text has this:
Decay-corrected blood and kidney time-activity curves (TAC) are shown for two individual mice. The blood-TAC for each of the animals was separately curve-fitted to a non-linear two phase decay equation. The (i) percent fast, (ii) half life (slow; minutes), (iii) half-life (fast; minutes), and (iv) R^2 values for mouse 1/mouse 2 were: 46/56, 13.2/13.7, 1.4/0.94, and 0.95/0.99, respectively.
PET Imaging and Biodistribution Studies with […]. […] Nude mice bearing HER2-expressing NCI-N87 human gastric carcinoma subcutaneous xenografts (n=4) were injected with 113-140 μCi ([…]) [^68Ga]Proteus-DOTA and imaged with dynamic positron-emission imaging for […] post-injection (p.i.) (n=2), or with static imaging at 1 h p.i. (n=4). All animals were then sacrificed at 2 hours post injection for ex vivo biodistribution analysis. The list-mode data was histogrammed using the following protocol: 12×10 seconds, 6×30 seconds, 5×60 seconds, 4×300 seconds, 30 min, resulting in […]. Regions-of-interest were drawn around heart (for blood as cardiac outflow) and kidney to determine activity concentrations (as % ID/g).

Series [4] is described as follows: Blood half-life and biodistribution of [^111In]Proteus-DOTA in tumor-free nude mice. It counts as in vivo, athymic nu/nu female mice. As to the method:
The blood half-life of surrogate [^111In] Proteus-DOTA was determined. Dotted line indicates nonlinear two phase decay analysis used to calculate half-life (R^2=0.913). Data is presented as mean ±SD.
(n=5 mice; given i.v.) in tumor-free healthy athymic nu/nu female mice.
Preparation of [^111In]Proteus-DOTA. Using similar radiochemical methods, [^111In]Proteus-DOTA was prepared from [^111In]indium chloride (Nuclear Diagnostic Products, Inc., Rockaway, N.J.; 249 MBq [6.73 mCi]) and 150 μL of 10 mg/mL Proteus-DOTA (1.5 mg; 1.11 μmoles). The [^111In]Proteus-DOTA yield was >98% and the final Specific Activity was 162.8 GBq/g [4.4 Ci/g] or 2.28 E5 GBq/mol [6160 Ci/mol]. This preparation was used for pharmacokinetic studies. Prior to administration into mice, the [^111In]Proteus-DOTA was purified using a Strata™-X cartridge (33 μm Polymeric Reversed Phase C-18 30 mg/l mL #8B-S100-TAK, Phenomenex® Inc., Torrance, Calif. USA) as described for [^68Ga]Proteus-DOTA and the radiochemical purity was verified to be >98% either using an in vitro binding assay with excess BsAb or by analytical reverse-phase HPLC coupled with radiodetection.
A biodistribution assay conducted at 240 min p.i.

Series [5] addresses anti-DOTA-hapten antibody single chain variable fragment C825. As to conditions: mean ±SD, read-out: Kd (equilibrium dissociation constant) of C825, cited from earlier work.
[6] abbreviates: biphasic, nonlinear two phase decay, R^2=0.913.

Where “and” joins values, the source holds several entries; their conditions need not be identical. Equal entries are not always repeated. Where two headings read alike, the source gives them in different places.

Turning to `O=C([O-])CN1CCN(CC(=O)[O-])CCN(CC(=O)NCCOCCOCCOCCOCCNC(=S)Nc2ccc(CC3CN(CC(=O)[O-])CCN(CC(=O)[O-])CCN(CC(=O)[O-])CCN3CC(=O)[O-])cc2)CCN(CC(=O)[O-])CC1.[Lu+3]` (stereo not drawn) [Proteus-DOTA], the “^225Ac that could be localized per gram of tumor” value in the series with SW1222 tumor (based on 62 pmol per gram at currently achieved SA) is listed as ~180 nCi. Also, the “maximum tumor uptake ("Bmax")” value in the series on SW1222 tumor (pretargeted, 24 h after dosing, ~170-33800 pmol) is ~60 pmol DOTA-hapten/gram of SW1222 tumor and 62 pmol DOTA-hapten/gram of SW1222 tumor.
For `Nc1ccc(CC2CN(CC(=O)[O-])CCN(CC(=O)[O-])CCN(CC(=O)[O-])CCN2CC(=O)[O-])cc1.[177Lu+3]` (stereo not drawn) [^177Lu-DOTA-Bn], in series [1], the Blood uptake was determined as 0.49±0.09 % ID/g and the kidney uptake is on record as 0.83±0.10 % ID/g. Also, the tumor uptake in series [1] (IMR-32 xenograft, n=5) was 10.29±2.87 % ID/g. Moreover, the maximum tumor uptake with SW1222 tumor (pretargeted, same system, i.v. administered dose of 600 pmol) is recorded as ~60 pmol/g. Moreover, the mean tumor uptake in series [2] was ~8 % ID/g.
With `Nc1ccc(CC2CN(CC(=O)[O-])CCN(CC(=O)[O-])CCN(CC(=O)[O-])CCN2CC(=O)[O-])cc1.[86Y+3]` (stereo not drawn) [^86Y-DOTA-Bn], in series [2], the mean tumor uptake is given as ~8 % ID/g.
For `O=C([O-])CN1CCN(CC(=O)[O-])CCN(CC(=O)NCCOCCOCCOCCOCCNC(=S)Nc2ccc(CC3CN(CC(=O)[O-])CCN(CC(=O)[O-])CCN(CC(=O)[O-])CCN3CC(=O)[O-])cc2)CCN(CC(=O)[O-])CC1.[68Ga+3].[Lu+3]` (stereo not drawn) [[^68Ga]Proteus-DOTA], in series [3] (2 h p.i., n = 4), the Blood activity concentration is 2.29 ± 0.31 % ID/g, the Bone activity concentration stood at 0.39 ± 0.07 % ID/g, the Heart activity concentration is reported as 0.75 ± 0.10 % ID/g and the Kidneys activity concentration worked out at 1.53 ± 0.50 % ID/g. In addition, in series [3] (2 h p.i., n = 4), the “Large Intestine activity concentration” value turned out to be 0.44 ± 0.10 % ID/g, the Liver activity concentration is 1.19 ± 0.08 % ID/g, the Lungs activity concentration turned out to be 1.00 ± 0.13 % ID/g and the Muscle activity concentration turned out to be 0.17 ± 0.03 % ID/g. For the same molecule, in series [3] (2 h p.i., n = 4), the “Small Intestine activity concentration” value is on record as 0.59 ± 0.21 % ID/g, the Spleen activity concentration worked out at 0.56 ± 0.13 % ID/g and the Stomach activity concentration is reported as 0.19 ± 0.05 % ID/g. In series [3] (NCI-N87 tumor, 2 h p.i., n = 4), this molecule registered a Tumor activity concentration of 0.65 ± 0.08 % ID/g. Besides, in series [3] (mouse 1, two phase decay fit), the “blood half life (slow)” value worked out at 13.2 min; the “blood half-life (fast)” value is 1.4 min; the “blood time-activity curve, percent fast” value was 46. Moreover, in series [3] (mouse 2, two phase decay fit), the “blood half life (slow)” value was found to be 13.7 min; the “blood half-life (fast)” value was determined as 0.94 min; the “blood time-activity curve, percent fast” value came out at 56.
As for `O=C([O-])CN1CCN(CC(=O)[O-])CCN(CC(=O)NCCOCCOCCOCCOCCNC(=S)Nc2ccc(CC3CN(CC(=O)[O-])CCN(CC(=O)[O-])CCN(CC(=O)[O-])CCN3CC(=O)[O-])cc2)CCN(CC(=O)[O-])CC1.[111In+3].[Lu+3]` (stereo not drawn) [[^111In]Proteus-DOTA], the “kidney retention (percent injected activity per gram of tissue)” value in series [4] (240 min p.i., i.v., n=5, mean ±SD) is reported as 0.96±0.25 % IA/g. The “remaining ^111In-activity in carcass after tissue dissection” value in series [4] (240 min p.i., n=5, mean ±SD) is recorded as 0.952±0.162 % ID. Moreover, the “share of alpha phase of blood clearance” value in series [4] (biphasic, nonlinear two phase decay) was found to be 87.7%. Besides, in series [4] (setting [6]), the “blood half-life (alpha)” value was determined as 7.49 min and the “blood half-life (beta)” value came to 24.8 min.
The term Kd denotes the constant that tells how readily two partners part at equilibrium. Turning to `Nc1ccc(CC2CN(CC(=O)[O-])CCN(CC(=O)O)CCN(CC(=O)[O-])CCN2CC(=O)[O-])cc1.[Lu+3]` (stereo not drawn) [DOTA-Bn complex of Lu, S-2-(4-aminobenzyl)-1,4,7,10-tetraazacyclododecane tetraacetic acid chelate], the values for the Kd in series [5] (listed as benzyl-DOTA (Lu) hapten) and in series [5] were 10 pM and 10.8 ± 2.5 pM, respectively.
